Results reported in US8865734B2 (priority 2010, dated 2014).
Values after ≈ are worked out from the molar mass of the structure shown.

Experiments:
[1] = tested on: M. tuberculosis inside the host macrophage; experiment: QIM: Quantification of Intracellular Mycobacteria (intracellular growth assay, phenotypic cell-based); conditions: Mycobacterium tuberculosis; MIC, 80% bacterial growth inhibition; intracellular growth; read-out: QIM
In short: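 Dose-response testing of intracellular mycobacterial replication in infected macrophages, a cell-based screening format; MIC is defined as the lowest concentration achieving 80% inhibition of bacterial growth.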

[2] = tested on: in vitro grown Mycobacteria (M. tuberculosis); experiment: QUM: Quantification of in vitro grown Mycobacteria (in vitro growth fluorescence assay); type: cell-based; conditions: Mycobacterium tuberculosis; MIC, 80% bacterial growth inhibition; in vitro growth; read-out: QUM
In short: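 Mycobacterium tuberculosis grown in vitro was quantified by fluorescence across compound dose responses. MIC is defined as the minimum concentration producing 80% growth inhibition.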

CCc1nc2ccc(Cl)cn2c1C(=O)NCc1ccc(N2CCC(Oc3ccc(Cl)cc3)CC2)cc1 [Compound 162, 6-Chloro-N-(4-(4-(4-chlorophenoxy)piperidin-1-yl)benzyl)-2-ethylimidazo[1,2-a]pyridine-3-carboxamide]
MIC [1]: < 1 µM
MIC [2]: < 1 µM

CCc1nc2cc(Cl)ccn2c1C(=O)NCc1ccc(N2CCN(c3ccccc3)CC2)cc1 [Compound 111, 7-Chloro-2-ethyl-N-(4-(4-phenylpiperazin-1-yl)benzyl)imidazo[1,2-a]pyridine-3-carboxamide]
MIC [1]: < 1 µM
MIC [2]: < 1 µM

CCc1nc2ccccn2c1C(=O)NCc1ccccc1 [Compound 46, N-Benzyl-2-ethylimidazo[1,2-a]pyridine-3-carboxamide]
MIC [1]: 1 to 20 µM (≈ 0.279 to 5.59 µg/mL)
MIC [2]: 1 to 20 µM (≈ 0.279 to 5.59 µg/mL)

CCc1nc2cc(Cl)ccn2c1C(=O)NCc1ccc(N2CCC(Oc3ccc(C(F)(F)F)cc3)CC2)cc1 [Compound 165, 7-Chloro-2-ethyl-N-(4-(4-(4-(trifluoromethyl)phenoxy)piperidin-1-yl)benzyl) imidazo[1,2-a]pyridine-3-carboxamide]
MIC [1]: < 1 µM
MIC [2]: < 1 µM

Cc1nc2ccccn2c1C(=O)Nc1ccc(Oc2ccccc2)cc1 [Compound 6, 2-Methyl-N-(4-phenoxyphenyl)imidazo[1,2-a]pyridine-3-carboxamide]
MIC [1]: > 20 µM
MIC [2]: > 20 µM

O=C(NCc1ccccc1)c1c(-c2ccccc2)nc2ccccn12 [Compound 53, N-Benzyl-2-phenylimidazo[1,2-a]pyridine-3-carboxamide]
MIC [1]: > 20 µM
MIC [2]: > 20 µM

CCCCCNc1ccc(CNC(=O)c2c(CC)nc3cc(Cl)ccn23)cc1 [Compound 107, 7-Chloro-2-ethyl-N-(4-(pentylamino)benzyl)imidazo[1,2-a]pyridine-3-carboxamide]
MIC [1]: < 1 µM
MIC [2]: < 1 µM

CCc1nc2cc(Cl)ccn2c1C(=O)NCc1ccc(-c2ccccc2)cc1 [Compound 93]
MIC [1]: < 1 µM
MIC [2]: < 1 µM

CCc1nc2ccc(Cl)cn2c1C(=O)NCc1ccc(-c2ccccc2Cl)cc1 [Compound 82, 6-Chloro-N-((2′-chlorobiphenyl-4-yl)methyl)-2-ethylimidazo[1,2-a]pyridine-3-carboxamide]
MIC [1]: < 1 µM
MIC [2]: < 1 µM

CCc1nc2ccc(Cl)cn2c1C(=O)NCc1ccc(N2CCN(c3ccc(F)cc3)CC2)cc1 [Compound 113, 6-Chloro-2-ethyl-N-(4-(4-(4-fluorophenyl)piperazin-1-yl)benzyl)imidazo[1,2-a]pyridine-3-carboxamide]
MIC [1]: < 1 µM
MIC [2]: < 1 µM

CCc1nc2cc(Cl)ccn2c1C(=O)NCc1ccc(-c2ccc(C(C)(C)C)cc2)cc1 [Compound 117, N-((4′-tert-Butylbiphenyl-4-yl)methyl)-7-chloro-2-ethylimidazo[1,2-a]pyridine-3-carboxamide]
MIC [1]: < 1 µM
MIC [2]: < 1 µM

CCc1nc2ccc(Cl)cn2c1C(=O)NCc1ccc(-c2ccccc2C#N)cc1 [Compound 125, 6-Chloro-N-((2′-cyanobiphenyl-4-yl)methyl)-2-ethylimidazo[1,2-a]pyridine-3-carboxamide]
MIC [1]: 1 to 20 µM (≈ 0.415 to 8.3 µg/mL)
MIC [2]: < 1 µM

CCc1nc2cc(Cl)ccn2c1C(=O)NCc1ccc(N2CCN(C(C)C)CC2)cc1 [Compound 110, 7-Chloro-2-ethyl-N-(4-(4-isopropylpiperazin-1-yl)benzyl)imidazo[1,2-a]pyridine-3-carboxamide]
MIC [1]: < 1 µM
MIC [2]: 1 to 20 µM (≈ 0.44 to 8.8 µg/mL)

CCc1nc2cc(Cl)ccn2c1C(=O)NCc1ccc(N2CCCCC2)cc1 [Compound 90, 7-Chloro-2-ethyl-N-(4-(piperidin-1-yl)benzyl)imidazo[1,2-a]pyridine-3-carboxamide]
MIC [1]: < 1 µM
MIC [2]: < 1 µM

CCc1nc2ccc(Cl)cn2c1C(=O)NCc1ccc(Nc2ccc(OC(F)(F)F)cc2)cc1 [Compound 198, 6-Chloro-2-ethyl-N-(4-(4-(trifluoromethoxy)phenylamino)benzyl)imidazo[1,2-a]pyridine-3-carboxamide]
MIC [1]: < 1 µM
MIC [2]: 1 to 20 µM (≈ 0.489 to 9.78 µg/mL)

CCCc1nc2ccccn2c1C(=O)NCc1ccc(-c2ccccc2)cc1 [Compound 49, N-(Biphenyl-4-ylmethyl)-2-propylimidazo[1,2-a]pyridine-3-carboxamide]
MIC [1]: < 1 µM
MIC [2]: < 1 µM

CCc1nc2cc(Cl)ccn2c1C(=O)NCc1ccc(N2CCC(C)CC2)cc1 [Compound 215, 7-Chloro-2-ethyl-N-(4-(4-methylpiperidin-1-yl)benzyl)imidazo[1,2-a]pyridine-3-carboxamide]
MIC [1]: < 1 µM
MIC [2]: < 1 µM

CCc1nc2cc(Cl)ccn2c1C(=O)NCc1ccc(N2CC=CCC2)cc1 [Compound 213, 7-Chloro-N-(4-(5,6-dihydropyridin-1(2H)-yl)benzyl)-2-ethylimidazo[1,2-a]pyridine-3-carboxamide]
MIC [1]: 1 to 20 µM (≈ 0.395 to 7.9 µg/mL)
MIC [2]: < 1 µM

Cc1nc2ccccn2c1C(=O)O [Compound 1, 2-Methylimidazo[1,2-a]pyridine-3-carboxylic acid]
MIC [1]: > 20 µM
MIC [2]: > 20 µM

CCc1nc2cc(Cl)ccn2c1C(=O)NCc1ccc(N2CCC(Oc3ccc(Cl)cc3)CC2)cc1 [Compound 163, 7-Chloro-N-(4-(4-(4-chlorophenoxy)piperidin-1-yl)benzyl)-2-ethylimidazo[1,2-a]pyridine-3-carboxamide]
MIC [1]: < 1 µM
MIC [2]: < 1 µM

CCc1nc2cc(Cl)ccn2c1C(=O)NCc1ccc(-c2ccc[nH]2)cc1 [Compound 136, N-(4-(1H-Pyrrol-2-yl)benzyl)-7-chloro-2-ethylimidazo[1,2-a]pyridine-3-carboxamide]
MIC [1]: 1 to 20 µM (≈ 0.379 to 7.58 µg/mL)
MIC [2]: 1 to 20 µM (≈ 0.379 to 7.58 µg/mL)

Cc1nc2ccccn2c1C(=O)NCc1ccc(F)cc1 [Compound 9, N-(4-Fluorobenzyl)-2-methylimidazo[1,2-a]pyridine-3-carboxamide]
MIC [1]: > 20 µM
MIC [2]: > 20 µM

Cc1nc2ccccn2c1C(=O)Nc1ccncc1 [Compound 5, 2-Methyl-N-(pyridin-4-yl)imidazo[1,2-a]pyridine-3-carboxamide]
MIC [1]: > 20 µM
MIC [2]: > 20 µM

Cc1ccn2c(C(=O)NCc3ccccc3)c(C)nc2c1 [Compound 31, N-Benzyl-2,7-dimethylimidazo[1,2-a]pyridine-3-carboxamide]
MIC [1]: < 1 µM
MIC [2]: 1 to 20 µM (≈ 0.279 to 5.59 µg/mL)

CC(C)(C)c1ccc(CNC(=O)c2c(C(F)(F)F)nc3ccc(Cl)cn23)cc1 [Compound 100, N-(4-tert-Butylbenzyl)-6-chloro-2-(trifluoromethyl)imidazo[1,2-a]pyridine-3-carboxamide]
MIC [1]: < 1 µM
MIC [2]: < 1 µM

CCc1nc2cc(Cl)ccn2c1C(=O)NCc1ccc(-c2ccco2)cc1 [Compound 137, 7-Chloro-2-ethyl-N-(4-(furan-2-yl)benzyl)imidazo[1,2-a]pyridine-3-carboxamide]
MIC [1]: < 1 µM
MIC [2]: 1 to 20 µM (≈ 0.38 to 7.6 µg/mL)

CCc1nc2ccc(Cl)cn2c1C(=O)NCc1ccc(N2CCC(Oc3ccc(F)cc3)CC2)cc1 [Compound 166, 6-Chloro-2-ethyl-N-(4-(4-(4-fluorophenoxy)piperidin-1-yl)benzyl)imidazo[1,2-a]pyridine-3-carboxamide]
MIC [1]: < 1 µM
MIC [2]: < 1 µM

CCc1nc2ccc(C(F)(F)F)cn2c1C(=O)NCc1ccc(OC(F)(F)F)cc1 [Compound 151, 2-Ethyl-N-(4-(trifluoromethoxy)benzyl)-6-(trifluoromethyl)imidazo[1,2-a]pyridine-3-carboxamide]
MIC [1]: > 20 µM
MIC [2]: 1 to 20 µM (≈ 0.431 to 8.63 µg/mL)

CCc1nc2ccc(Cl)cn2c1C(=O)NCc1ccc(N2CCC(COC(C)C)CC2)cc1 [Compound 291, 6-Chloro-2-ethyl-N-(4-(4-(isopropoxymethyl)piperidin-1-yl)benzyl)imidazo[1,2-a]pyridine-3-carboxamide]
MIC [1]: < 1 µM
MIC [2]: < 1 µM

CCOC(=O)c1c(C)nc2ccc(-c3ccccc3)cn12 [Compound 4, Ethyl 2-methyl-6-phenylimidazo[1,2-a]pyridine-3-carboxylate]
MIC [1]: > 20 µM
MIC [2]: > 20 µM

CCc1nc2ccc(Cl)cn2c1C(=O)NCc1ccc(-c2ccc(Cl)cc2C(F)(F)F)cc1 [Compound 129, 6-Chloro-N-((4′-chloro-2′-(trifluoromethyl)biphenyl-4-yl)methyl)-2-ethylimidazo[1,2-a]pyridine-3-carboxamide]
MIC [1]: < 1 µM
MIC [2]: < 1 µM

CCc1nc2cc(Cl)ccn2c1C(=O)NCc1ccc(N2CCC(Oc3ccc(OC(F)(F)F)cc3)CC2)cc1 [Compound 140, 7-Chloro-2-ethyl-N-(4-(4-(4-(trifluoromethoxy)phenoxy)piperidin-1-yl)benzyl)imidazo-[1,2-a]pyridine-3-carboxamide]
MIC [1]: < 1 µM
MIC [2]: < 1 µM

Cc1nc2cc(-c3ccccc3)ccn2c1C(=O)O [Compound 3, 2-Methyl-7-phenylimidazo[1,2-a]pyridine-3-carboxylic acid]
MIC [1]: > 20 µM
MIC [2]: > 20 µM

CCc1nc2ccc(C)cn2c1C(=O)NCc1ccc(C(C)(C)C)cc1 [Compound 64, N-(4-tert-Butylbenzyl)-2-ethyl-6-methylimidazo[1,2-a]pyridine-3-carboxamide]
MIC [1]: < 1 µM
MIC [2]: < 1 µM

CCc1nc2ccc(Cl)cn2c1C(=O)NCc1ccc(-c2cccc(C)c2)cc1 [Compound 85, 6-Chloro-2-ethyl-N-((3′-methylbiphenyl-4-yl)methyl)imidazo[1,2-a]pyridine-3-carboxamide]
MIC [1]: < 1 µM
MIC [2]: < 1 µM

CCc1nc2cc(Cl)ccn2c1C(=O)NCc1ccn(-c2ccc(F)cc2)n1 [Compound 236, 7-Chloro-2-ethyl-N-((1-(4-fluorophenyl)-1H-pyrazol-3-yl)methyl)imidazo[1,2-a]pyridine-3-carboxamide]
MIC [1]: > 20 µM
MIC [2]: 1 to 20 µM (≈ 0.398 to 7.96 µg/mL)

CCc1nc2ccc(Cl)cn2c1C(=O)NCc1ccc2ccccc2c1 [Compound 80, 6-Chloro-2-ethyl-N-(naphthalen-2-ylmethyl)imidazo[1,2-a]pyridine-3-carboxamide]
MIC [1]: < 1 µM
MIC [2]: < 1 µM

CCc1nc2ccc(Cl)cn2c1C(=O)NCc1ccc(OC(C)C)cc1 [Compound 75]
MIC [1]: < 1 µM
MIC [2]: < 1 µM
